# From patent US9738634B2, “Heterocyclic amide compound and herbicide” (SYNGENTA PARTICIPATIONS AG, priority 2013, dated 2017)
# Columns and labels:
# Format in all cases: in vivo
# [1] = tested on: barnyard grass; assay: Test Example 1: weedkilling efficacy, preemergent weed treatment in the submerged state; A: barnyard grass; conditions: treatment dosage 252 g/ha
# Summary of the method: (§1)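 Pots of alluvial soil flooded 4 cm deep, sown with barnyard grass, bulrush and oval-leafed pondweed and transplanted with 2.5-leaf rice. Emulsified compound applied to the water surface on sowing day at stated g/ha; greenhouse 25–30 °C, effects assessed 3 weeks after treatment.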
# [2] = tested on: bulrush; assay: Test Example 1: weedkilling efficacy, preemergent weed treatment in the submerged state; B: bulrush; conditions: treatment dosage 252 g/ha
# Summary of the method: as §1
# [3] = tested on: oval-leafed pondweed; assay: Test Example 1: weedkilling efficacy, preemergent weed treatment in the submerged state; C: oval-leafed pondweed; conditions: treatment dosage 252 g/ha
# Summary of the method: as §1
# [4] = tested on: transplanted rice; assay: Test Example 1: preemergent weed treatment in the submerged state, effect on crop; a: transplanted rice; conditions: treatment dosage 252 g/ha
# Summary of the method: as §1
# [5] = tested on: barnyard grass; assay: Test Example 2: weedkilling efficacy, growth period weed treatment in the submerged state; A: barnyard grass; conditions: treatment dosage 252 g/ha
# Summary of the method: (§2)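 Barnyard grass, bulrush and oval-leafed pondweed sown in alluvial soil under 4 cm flooding, greenhouse 25 to 30° C. At 1-2 leaf stage, water-diluted emulsion applied to the water surface at stated g/ha dosages; effects scored 3 weeks later.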
# [6] = tested on: bulrush; assay: Test Example 2: weedkilling efficacy, growth period weed treatment in the submerged state; B: bulrush; conditions: treatment dosage 252 g/ha
# Summary of the method: as §2
# [7] = tested on: oval-leafed pondweed; assay: Test Example 2: weedkilling efficacy, growth period weed treatment in the submerged state; C: oval-leafed pondweed; conditions: treatment dosage 252 g/ha
# Summary of the method: as §2
# [8] = tested on: crabgrass; assay: Test Example 3: weedkilling efficacy through soil treatment; D: crabgrass; conditions: treatment dosage 315 g/ha
# Summary of the method: (§3)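 Crop and weed responses were judged three weeks after a uniform surface spray of the water-diluted emulsion at the given g/ha rate. Seeds sat beneath about 1.5 cm of sterilized diluvial soil, and boxes stood in a greenhouse at 25 to 30° C.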
# [9] = tested on: green foxtail; assay: Test Example 3: weedkilling efficacy through soil treatment; E: green foxtail; conditions: treatment dosage 315 g/ha
# Summary of the method: as §3
# [10] = tested on: wild oat; assay: Test Example 3: weedkilling efficacy through soil treatment; G: wild oat; conditions: treatment dosage 315 g/ha
# Summary of the method: as §3
# [11] = tested on: black-grass; assay: Test Example 3: weedkilling efficacy through soil treatment; H: black-grass; conditions: treatment dosage 315 g/ha
# Summary of the method: as §3
# [12] = tested on: Italian ryegrass; assay: Test Example 3: weedkilling efficacy through soil treatment; I: Italian ryegrass; conditions: treatment dosage 315 g/ha
# Summary of the method: as §3
# [13] = tested on: Indian mallow; assay: Test Example 3: weedkilling efficacy through soil treatment; K: Indian mallow; conditions: treatment dosage 315 g/ha
# Summary of the method: as §3
# [14] = tested on: redroot pigweed; assay: Test Example 3: weedkilling efficacy through soil treatment; L: redroot pigweed; conditions: treatment dosage 315 g/ha
# Summary of the method: as §3
# [15] = tested on: fig-leafed goosefoot; assay: Test Example 3: weedkilling efficacy through soil treatment; M: fig-leafed goosefoot; conditions: treatment dosage 315 g/ha
# Summary of the method: as §3
# [16] = tested on: chickweed; assay: Test Example 3: weedkilling efficacy through soil treatment; N: chickweed; conditions: treatment dosage 315 g/ha
# Summary of the method: as §3
# [17] = tested on: catchweed; assay: Test Example 3: weedkilling efficacy through soil treatment; O: catchweed; conditions: treatment dosage 315 g/ha
# Summary of the method: as §3
# [18] = tested on: birds-eye speedwell; assay: Test Example 3: weedkilling efficacy through soil treatment; p: birds-eye speedwell; conditions: treatment dosage 315 g/ha
# Summary of the method: as §3
# [19] = tested on: directly sown rice; assay: Test Example 3: soil treatment, effect on crop; b: directly sown rice; conditions: treatment dosage 315 g/ha
# Summary of the method: as §3
# [20] = tested on: corn; assay: Test Example 3: soil treatment, effect on crop; c: corn; conditions: treatment dosage 315 g/ha
# Summary of the method: as §3
# [21] = tested on: soybean; assay: Test Example 3: soil treatment, effect on crop; d: soybean; conditions: treatment dosage 315 g/ha
# Summary of the method: as §3
# [22] = tested on: wheat; assay: Test Example 3: soil treatment, effect on crop; e: wheat; conditions: treatment dosage 315 g/ha
# Summary of the method: as §3
# [23] = tested on: beet; assay: Test Example 3: soil treatment, effect on crop; f: beet; conditions: treatment dosage 315 g/ha
# Summary of the method: as §3
# [24] = tested on: crabgrass; assay: Test Example 4: weedkilling efficacy by foliar treatment; D: crabgrass; conditions: treatment dosage 315 g/ha
# Summary of the method: (§4)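 Seeds are spot-sown into sterilized diluvial soil and covered with about 1.5 cm of soil. After 14 days' greenhouse growth at 25 to 30° C, plants are sprayed on stems and leaves with diluted emulsion at the stated g/ha rate, then scored at 3 weeks.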
# [25] = tested on: green foxtail; assay: Test Example 4: weedkilling efficacy by foliar treatment; E: green foxtail; conditions: treatment dosage 315 g/ha
# Summary of the method: as §4
# [26] = tested on: wild oat; assay: Test Example 4: weedkilling efficacy by foliar treatment; G: wild oat; conditions: treatment dosage 315 g/ha
# Procedure: Testing of Weedkilling Efficacy by Foliar Treatment
# Sterilized diluvial soil was introduced into 21 cm long, 13 cm wide, 7 cm deep plastic boxes, and seeds of crabgrass, green foxtail, barnyard grass, wild oat, black-grass, Italian ryegrass, common wind-grass, Indian mallow, redroot pigweed, fig-leafed goosefoot, chickweed, catchweed, birds-eye speedwell, corn, soybean, rice, wheat, beet and rapeseed were each spot-sown, and covered with about 1.5 cm of soil, then the plants were grown in a greenhouse at 25 to 30° C.
# After they had grown for 14 days, emulsions of compounds of the present invention prepared according to compounding example 2 were diluted with water to give the specified dosages, and applied uniformly onto the stem and leaf parts with a small sprayer. 3 weeks after the pesticide treatment the effect on each type of plant was investigated on the basis of the assessment criteria of test example 1.
# A: barnyard grass, B: bulrush, C: oval-leafed pondweed, D: crabgrass, E: green foxtail, F: barnyard grass, G: wild oat, H: black-grass, I: Italian ryegrass, J: common wind-grass, K: Indian mallow, L: redroot pigweed, M: fig-leafed goosefoot, N: chickweed, O: catchweed, p: birds-eye speedwell, a: transplanted rice, b: directly sown rice, c: corn, d: soybean, e: wheat, f: beet, g: rapeseed
# Further, pesticide dosage (g/ha) indicates the concentration regulated such that treatment was with only the stated number of grams (g), when calculated per hectare (ha).
# [27] = tested on: black-grass; assay: Test Example 4: weedkilling efficacy by foliar treatment; H: black-grass; conditions: treatment dosage 315 g/ha
# Summary of the method: as §4
# [28] = tested on: Italian ryegrass; assay: Test Example 4: weedkilling efficacy by foliar treatment; I: Italian ryegrass; conditions: treatment dosage 315 g/ha
# Summary of the method: as §4
# [29] = tested on: Indian mallow; assay: Test Example 4: weedkilling efficacy by foliar treatment; K: Indian mallow; conditions: treatment dosage 315 g/ha
# Summary of the method: as §4
# [30] = tested on: redroot pigweed; assay: Test Example 4: weedkilling efficacy by foliar treatment; L: redroot pigweed; conditions: treatment dosage 315 g/ha
# Summary of the method: as §4
# [31] = tested on: fig-leafed goosefoot; assay: Test Example 4: weedkilling efficacy by foliar treatment; M: fig-leafed goosefoot; conditions: treatment dosage 315 g/ha
# Summary of the method: as §4
# [32] = tested on: chickweed; assay: Test Example 4: weedkilling efficacy by foliar treatment; N: chickweed; conditions: treatment dosage 315 g/ha
# Summary of the method: as §4
# [33] = tested on: catchweed; assay: Test Example 4: weedkilling efficacy by foliar treatment; O: catchweed; conditions: treatment dosage 315 g/ha
# Summary of the method: as §4
# [34] = tested on: directly sown rice; assay: Test Example 4: foliar treatment, effect on crop; b: directly sown rice; conditions: treatment dosage 315 g/ha
# Summary of the method: as §4
# [35] = tested on: corn; assay: Test Example 4: foliar treatment, effect on crop; c: corn; conditions: treatment dosage 315 g/ha
# Summary of the method: as §4
# [36] = tested on: soybean; assay: Test Example 4: foliar treatment, effect on crop; d: soybean; conditions: treatment dosage 315 g/ha
# Summary of the method: as §4
# [37] = tested on: wheat; assay: Test Example 4: foliar treatment, effect on crop; e: wheat; conditions: treatment dosage 315 g/ha
# Summary of the method: as §4
# [38] = tested on: beet; assay: Test Example 4: foliar treatment, effect on crop; f: beet; conditions: treatment dosage 315 g/ha
# Summary of the method: as §4
smiles,measurement,setting,value
CC1=C(c2ccccc2)C(=O)N(C(C)(C)C(=O)Nc2cc(C(F)(F)F)ccn2)CO1 [B-2-57],A (barnyard grass) weedkilling efficacy grade,[1],"5 (weed kill ratio 90% or more, (practically complete withering))"
same,B (bulrush) weedkilling efficacy grade,[2],"5 (weed kill ratio 90% or more, (practically complete withering))"
same,C (oval-leafed pondweed) weedkilling efficacy grade,[3],"5 (weed kill ratio 90% or more, (practically complete withering))"
same,a (transplanted rice) effect on crop grade,[4],"4 (weed kill ratio 70% or more, less than 90%)"
same,A (barnyard grass) weedkilling efficacy grade,[5],"5 (weed kill ratio 90% or more, (practically complete withering))"
same,B (bulrush) weedkilling efficacy grade,[6],"5 (weed kill ratio 90% or more, (practically complete withering))"
same,C (oval-leafed pondweed) weedkilling efficacy grade,[7],"5 (weed kill ratio 90% or more, (practically complete withering))"
same,D (crabgrass) weedkilling efficacy grade,[8],"5 (weed kill ratio 90% or more, (practically complete withering))"
same,E (green foxtail) weedkilling efficacy grade,[9],"5 (weed kill ratio 90% or more, (practically complete withering))"
same,G (wild oat) weedkilling efficacy grade,[10],"5 (weed kill ratio 90% or more, (practically complete withering))"
same,H (black-grass) weedkilling efficacy grade,[11],"5 (weed kill ratio 90% or more, (practically complete withering))"
same,I (Italian ryegrass) weedkilling efficacy grade,[12],"5 (weed kill ratio 90% or more, (practically complete withering))"
same,K (Indian mallow) weedkilling efficacy grade,[13],"5 (weed kill ratio 90% or more, (practically complete withering))"
same,L (redroot pigweed) weedkilling efficacy grade,[14],"5 (weed kill ratio 90% or more, (practically complete withering))"
same,M (fig-leafed goosefoot) weedkilling efficacy grade,[15],"4 (weed kill ratio 70% or more, less than 90%)"
same,N (chickweed) weedkilling efficacy grade,[16],"4 (weed kill ratio 70% or more, less than 90%)"
same,O (catchweed) weedkilling efficacy grade,[17],"5 (weed kill ratio 90% or more, (practically complete withering))"
same,P (birds-eye speedwell) weedkilling efficacy grade,[18],"5 (weed kill ratio 90% or more, (practically complete withering))"
same,b (directly sown rice) effect on crop grade,[19],"5 (weed kill ratio 90% or more, (practically complete withering))"
same,c (corn) effect on crop grade,[20],"4 (weed kill ratio 70% or more, less than 90%)"
same,d (soybean) effect on crop grade,[21],"4 (weed kill ratio 70% or more, less than 90%)"
same,e (wheat) effect on crop grade,[22],0 (weed kill ratio 5% or less (practically no effect))
same,f (beet) effect on crop grade,[23],"3 (weed kill ratio 40% or more, less than 70%)"
same,D (crabgrass) weedkilling efficacy grade,[24],"5 (weed kill ratio 90% or more, (practically complete withering))"
same,E (green foxtail) weedkilling efficacy grade,[25],"5 (weed kill ratio 90% or more, (practically complete withering))"
same,G (wild oat) weedkilling efficacy grade,[26],"5 (weed kill ratio 90% or more, (practically complete withering))"
same,H (black-grass) weedkilling efficacy grade,[27],"5 (weed kill ratio 90% or more, (practically complete withering))"
same,I (Italian ryegrass) weedkilling efficacy grade,[28],"5 (weed kill ratio 90% or more, (practically complete withering))"
same,K (Indian mallow) weedkilling efficacy grade,[29],"5 (weed kill ratio 90% or more, (practically complete withering))"
same,L (redroot pigweed) weedkilling efficacy grade,[30],"5 (weed kill ratio 90% or more, (practically complete withering))"
same,M (fig-leafed goosefoot) weedkilling efficacy grade,[31],"3 (weed kill ratio 40% or more, less than 70%)"
same,N (chickweed) weedkilling efficacy grade,[32],"3 (weed kill ratio 40% or more, less than 70%)"
same,O (catchweed) weedkilling efficacy grade,[33],"5 (weed kill ratio 90% or more, (practically complete withering))"
same,b (directly sown rice) effect on crop grade,[34],"5 (weed kill ratio 90% or more, (practically complete withering))"
same,c (corn) effect on crop grade,[35],"5 (weed kill ratio 90% or more, (practically complete withering))"
same,d (soybean) effect on crop grade,[36],"4 (weed kill ratio 70% or more, less than 90%)"
same,e (wheat) effect on crop grade,[37],"1 (weed kill ratio 5% or more, less than 20%)"
same,f (beet) effect on crop grade,[38],"3 (weed kill ratio 40% or more, less than 70%)"
